Experimental data published in ChEMBL document CHEMBL3259721, “Base substituted 5'-O-(N-isoleucyl)sulfamoyl nucleoside analogues as potential antibacterial agents” (Bioorg Med Chem, 2014).
Calls of active or inactive are those of the source. The calls are words filed in the database; no cut-off is given here. Peptide text beside a SMILES is read from it. * marks the point of attachment. X6 = CC[C@H](C)[C@H](N*)C(=O)NS(=O)(=O)OC[C@H]1O[C@@H](n2cnc3c([N+](=O)[O-])cccc32)[C@H](O)[C@@H]1O; X7 = CC[C@H](C)[C@H](N*)C(=O)NS(=O)(=O)OC[C@H]1O[C@@H](n2cnc3c(=O)[nH]c(N)nc32)[C@H](O)[C@@H]1O; X3 = CC[C@H](C)[C@H](N*)C(=O)NS(=O)(=O)OC[C@H]1O[C@@H](n2ccc(=O)[nH]c2=O)[C@H](O)[C@@H]1O; X1 = CC[C@H](C)[C@H](N*)C(=O)NS(=O)(=O)OC[C@H]1O[C@@H](n2cnc3c(N)cccc32)[C@H](O)[C@@H]1O; X2 = CC[C@H](C)[C@H](N*)C(=O)NS(=O)(=O)OC[C@H]1O[C@@H](n2cnc3c(N)ncnc32)[C@H](O)[C@@H]1O; X4 = CC[C@H](C)[C@H](N*)C(=O)NS(=O)(=O)OC[C@H]1O[C@@H](n2cnc3c(O)ncnc32)[C@H](O)[C@@H]1O; X5 = CC[C@H](C)[C@H](N*)C(=O)NS(=O)(=O)OC[C@H]1O[C@@H](n2ccc(N)nc2=O)[C@H](O)[C@@H]1O; For = O=C*

How the values were obtained:
Escherichia coli [1] = experiment: Antibacterial activity against wild type Escherichia coli assessed as growth inhibition in Luria broth at 5 mM after 8 to 18 hrs by broth dilution test; assay type: functional, organism-based
Escherichia coli [2] = experiment: Antibacterial activity against wild type Escherichia coli Ara-Yej (BW39758) assessed as growth inhibition in Luria broth at 10 to 60 uM after 8 hrs by broth dilution test; assay type: functional, organism-based
[3] = target: Isoleucine--tRNA ligase (Escherichia coli K-12) (UniProt P00956); experiment: Inhibition of Isoleucine-tRNA synthetase in wild type Escherichia coli S30 cell extract assessed as inhibition of [C14]isoleucine incorporation in tRNA under in vitro aminoacylation conditions at 3.13 uM by liquid scintillation counting
Sequence of Isoleucine--tRNA ligase (Escherichia coli K-12) (P00956 whole entry, the tested form may be a part): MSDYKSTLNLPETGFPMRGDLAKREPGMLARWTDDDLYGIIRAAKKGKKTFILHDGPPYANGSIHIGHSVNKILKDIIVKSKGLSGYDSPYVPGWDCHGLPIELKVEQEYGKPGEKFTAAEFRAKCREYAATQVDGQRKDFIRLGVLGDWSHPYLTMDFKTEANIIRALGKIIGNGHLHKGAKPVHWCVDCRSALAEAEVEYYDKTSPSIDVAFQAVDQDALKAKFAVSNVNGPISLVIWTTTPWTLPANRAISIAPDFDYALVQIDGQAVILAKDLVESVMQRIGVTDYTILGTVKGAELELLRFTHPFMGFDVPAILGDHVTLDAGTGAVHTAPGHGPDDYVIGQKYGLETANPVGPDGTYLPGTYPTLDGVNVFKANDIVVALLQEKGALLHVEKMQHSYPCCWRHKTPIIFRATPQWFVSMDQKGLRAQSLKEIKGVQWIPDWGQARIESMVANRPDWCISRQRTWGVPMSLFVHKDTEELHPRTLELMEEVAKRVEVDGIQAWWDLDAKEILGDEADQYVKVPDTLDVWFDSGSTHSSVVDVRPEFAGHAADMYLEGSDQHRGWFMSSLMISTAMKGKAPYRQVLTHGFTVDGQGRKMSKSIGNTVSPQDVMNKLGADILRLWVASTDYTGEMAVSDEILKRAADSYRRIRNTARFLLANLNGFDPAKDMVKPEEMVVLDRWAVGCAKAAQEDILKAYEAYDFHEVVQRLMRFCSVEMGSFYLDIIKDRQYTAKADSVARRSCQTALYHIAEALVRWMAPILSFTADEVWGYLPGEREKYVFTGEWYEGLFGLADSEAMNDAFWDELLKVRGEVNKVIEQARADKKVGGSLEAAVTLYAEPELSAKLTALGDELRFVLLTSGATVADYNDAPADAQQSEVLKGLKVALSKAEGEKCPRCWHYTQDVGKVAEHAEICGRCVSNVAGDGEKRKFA

Escherichia coli [4] = experiment: Antibacterial activity against wild type Escherichia coli assessed as growth inhibition in Luria broth at 5 mM after 8 to 18 hrs by disc diffusion method; assay type: functional, organism-based

CC[C@H](C)[C@H](NC(=O)[C@H](C)NC(=O)[C@H](CC(N)=O)NC(=O)CNC(=O)[C@@H](NC(=O)[C@H](CCCNC(=N)N)NC(=O)[C@H](CCSC)NC=O)[C@@H](C)O)C(=O)NS(=O)(=O)OC[C@H]1O[C@@H](n2cnc3c(O)ncnc32)[C@H](O)[C@@H]1O (For-MRTGNA-X4)
growth inhibition (GI) (Escherichia coli [1]): inactive | growth inhibition (GI) (Escherichia coli [2]): Active

CC[C@H](C)[C@H](NC(=O)[C@H](C)NC(=O)[C@H](CC(N)=O)NC(=O)CNC(=O)[C@@H](NC(=O)[C@H](CCCNC(=N)N)NC(=O)[C@H](CCSC)NC=O)[C@@H](C)O)C(=O)NS(=O)(=O)OC[C@H]1O[C@@H](n2cnc3c(N)ncnc32)[C@H](O)[C@@H]1O (For-MRTGNA-X2)
growth inhibition (GI) (Escherichia coli [1]): inactive | growth inhibition (GI) (Escherichia coli [2]): Active

CC[C@H](C)[C@H](NC(=O)[C@H](C)NC(=O)[C@H](CC(N)=O)NC(=O)CNC(=O)[C@@H](NC(=O)[C@H](CCCNC(=N)N)NC(=O)[C@H](CCSC)NC=O)[C@@H](C)O)C(=O)NS(=O)(=O)OC[C@H]1O[C@@H](n2ccc(N)nc2=O)[C@H](O)[C@@H]1O (For-MRTGNA-X5)
growth inhibition (GI) (Escherichia coli [1]): inactive

CC[C@H](C)[C@H](N)C(=O)NS(=O)(=O)OC[C@H]1O[C@@H](n2ccc(N)nc2=O)[C@H](O)[C@@H]1O
inhibition [3]: Active | growth inhibition (GI) (Escherichia coli [4]): inactive

CC[C@H](C)[C@H](NC(=O)[C@H](C)NC(=O)[C@H](CC(N)=O)NC(=O)CNC(=O)[C@@H](NC(=O)[C@H](CCCNC(=N)N)NC(=O)[C@H](CCSC)NC=O)[C@@H](C)O)C(=O)NS(=O)(=O)OC[C@H]1O[C@@H](n2cnc3c(N)cccc32)[C@H](O)[C@@H]1O (For-MRTGNA-X1)
growth inhibition (GI) (Escherichia coli [1]): inactive | growth inhibition (GI) (Escherichia coli [2]): Active

CC[C@H](C)[C@H](NC(=O)[C@H](C)NC(=O)[C@H](CC(N)=O)NC(=O)CNC(=O)[C@@H](NC(=O)[C@H](CCCNC(=N)N)NC(=O)[C@H](CCSC)NC=O)[C@@H](C)O)C(=O)NS(=O)(=O)OC[C@H]1O[C@@H](n2cnc3c(=O)[nH]c(N)nc32)[C@H](O)[C@@H]1O (For-MRTGNA-X7)
growth inhibition (GI) (Escherichia coli [1]): inactive

CC[C@H](C)[C@H](N)C(=O)NS(=O)(=O)OC[C@H]1O[C@@H](n2cnc3c(N)cccc32)[C@H](O)[C@@H]1O
inhibition [3]: Active | growth inhibition (GI) (Escherichia coli [4]): inactive

CC[C@H](C)[C@H](N)C(=O)NS(=O)(=O)OC[C@H]1O[C@@H](n2cnc3c(N)ncnc32)[C@H](O)[C@@H]1O
inhibition [3]: Active | growth inhibition (GI) (Escherichia coli [4]): inactive

CC[C@H](C)[C@H](NC(=O)[C@H](C)NC(=O)[C@H](CC(N)=O)NC(=O)CNC(=O)[C@@H](NC(=O)[C@H](CCCNC(=N)N)NC(=O)[C@H](CCSC)NC=O)[C@@H](C)O)C(=O)NS(=O)(=O)OC[C@H]1O[C@@H](n2ccc(=O)[nH]c2=O)[C@H](O)[C@@H]1O (For-MRTGNA-X3)
growth inhibition (GI) (Escherichia coli [1]): inactive | growth inhibition (GI) (Escherichia coli [2]): inactive

CC[C@H](C)[C@H](N)C(=O)NS(=O)(=O)OC[C@H]1O[C@@H](n2cnc3c(O)ncnc32)[C@H](O)[C@@H]1O
inhibition [3]: Active | growth inhibition (GI) (Escherichia coli [4]): inactive

CC[C@H](C)[C@H](NC(=O)[C@H](C)NC(=O)[C@H](CC(N)=O)NC(=O)CNC(=O)[C@@H](NC(=O)[C@H](CCCNC(=N)N)NC(=O)[C@H](CCSC)NC=O)[C@@H](C)O)C(=O)NS(=O)(=O)OC[C@H]1O[C@@H](n2cnc3c([N+](=O)[O-])cccc32)[C@H](O)[C@@H]1O (For-MRTGNA-X6)
growth inhibition (GI) (Escherichia coli [1]): inactive

CC[C@H](C)[C@H](N)C(=O)NS(=O)(=O)OC[C@H]1O[C@@H](n2cnc3c(=O)[nH]c(N)nc32)[C@H](O)[C@@H]1O
inhibition [3]: Active | growth inhibition (GI) (Escherichia coli [4]): inactive

CC[C@H](C)[C@H](N)C(=O)NS(=O)(=O)OC[C@H]1O[C@@H](n2cnc3c([N+](=O)[O-])cccc32)[C@H](O)[C@@H]1O
inhibition [3]: Active | growth inhibition (GI) (Escherichia coli [4]): inactive

CC[C@H](C)[C@H](N)C(=O)NS(=O)(=O)OC[C@H]1O[C@@H](n2ccc(=O)[nH]c2=O)[C@H](O)[C@@H]1O
inhibition [3]: Active | growth inhibition (GI) (Escherichia coli [4]): inactive
